{"source": "paper PMC2813745", "about": "“A novel inhibitor of the PI3K/Akt pathway based on the structure of inositol 1,3,4,5,6-pentakisphosphate” (British Journal of Cancer, 2010)", "key": {"[1]": {"biological_target": "ROCK2 (Homo sapiens, UniProt O75116)", "experiment": "SelectScreen kinase profiling: ROCK2", "format": "biochemical", "conditions": "[ATP] 50 µM", "experimental": "(§1) Effect of the indicated compounds on the activity of various kinases was assessed by SelectScreen Kinase Profiling Service (Invitrogen-Life Technologies, Paisley, UK). Assays were performed using 1 μM of the tested compounds and ATP concentration as indicated in the corresponding tables. In the case of […] a screen using 10 μM of the compound was also carried out, as indicated in the corresponding table."}, "[2]": {"biological_target": "BRAF (Homo sapiens, UniProt P15056)", "experiment": "SelectScreen kinase profiling: BRAF", "format": "biochemical", "conditions": "[ATP] 100 µM", "experimental": "as §1"}, "[3]": {"biological_target": "CDK5/p35 (Homo sapiens, UniProt Q00535)", "experiment": "SelectScreen kinase profiling: CDK5/p35", "format": "biochemical", "conditions": "[ATP] 10 µM", "experimental": "as §1"}, "[4]": {"biological_target": "PI4KB (PI4Kβ) (Homo sapiens, UniProt Q9UBF8)", "sequence (Q9UBF8 whole entry)": "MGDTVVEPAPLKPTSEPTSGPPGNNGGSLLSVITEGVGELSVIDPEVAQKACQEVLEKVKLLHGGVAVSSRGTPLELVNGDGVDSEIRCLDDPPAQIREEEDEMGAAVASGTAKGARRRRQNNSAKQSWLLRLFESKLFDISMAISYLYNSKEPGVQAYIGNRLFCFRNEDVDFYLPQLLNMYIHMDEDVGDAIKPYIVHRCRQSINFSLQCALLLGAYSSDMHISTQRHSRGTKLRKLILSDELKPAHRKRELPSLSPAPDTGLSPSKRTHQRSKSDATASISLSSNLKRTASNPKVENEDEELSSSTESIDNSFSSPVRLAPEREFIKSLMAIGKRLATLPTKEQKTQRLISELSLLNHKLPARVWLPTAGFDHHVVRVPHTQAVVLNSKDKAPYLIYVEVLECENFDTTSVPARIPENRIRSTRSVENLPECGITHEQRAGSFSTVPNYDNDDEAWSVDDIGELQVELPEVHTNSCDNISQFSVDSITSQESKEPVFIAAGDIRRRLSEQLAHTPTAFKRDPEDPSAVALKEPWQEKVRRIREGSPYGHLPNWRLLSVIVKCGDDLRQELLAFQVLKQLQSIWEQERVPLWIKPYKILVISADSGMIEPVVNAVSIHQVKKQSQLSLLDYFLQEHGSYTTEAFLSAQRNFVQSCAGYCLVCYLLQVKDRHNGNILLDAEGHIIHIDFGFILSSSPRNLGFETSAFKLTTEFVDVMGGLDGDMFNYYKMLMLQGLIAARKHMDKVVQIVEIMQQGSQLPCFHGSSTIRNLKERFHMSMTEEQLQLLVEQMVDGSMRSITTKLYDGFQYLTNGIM", "experiment": "SelectScreen kinase profiling: PI4KB", "format": "biochemical", "conditions": "[ATP] 5 µM", "experimental": "as §1"}, "[5]": {"biological_target": "RAF1 (cRAF) Y340D Y341D (Homo sapiens, UniProt P04049, Y340D/Y341D)", "experiment": "SelectScreen kinase profiling: RAF1", "format": "biochemical", "conditions": "[ATP] 100 µM", "experimental": "as §1"}, "[6]": {"biological_target": "PRKCZ (PKCζ) (Homo sapiens, UniProt Q05513)", "sequence (Q05513 whole entry)": "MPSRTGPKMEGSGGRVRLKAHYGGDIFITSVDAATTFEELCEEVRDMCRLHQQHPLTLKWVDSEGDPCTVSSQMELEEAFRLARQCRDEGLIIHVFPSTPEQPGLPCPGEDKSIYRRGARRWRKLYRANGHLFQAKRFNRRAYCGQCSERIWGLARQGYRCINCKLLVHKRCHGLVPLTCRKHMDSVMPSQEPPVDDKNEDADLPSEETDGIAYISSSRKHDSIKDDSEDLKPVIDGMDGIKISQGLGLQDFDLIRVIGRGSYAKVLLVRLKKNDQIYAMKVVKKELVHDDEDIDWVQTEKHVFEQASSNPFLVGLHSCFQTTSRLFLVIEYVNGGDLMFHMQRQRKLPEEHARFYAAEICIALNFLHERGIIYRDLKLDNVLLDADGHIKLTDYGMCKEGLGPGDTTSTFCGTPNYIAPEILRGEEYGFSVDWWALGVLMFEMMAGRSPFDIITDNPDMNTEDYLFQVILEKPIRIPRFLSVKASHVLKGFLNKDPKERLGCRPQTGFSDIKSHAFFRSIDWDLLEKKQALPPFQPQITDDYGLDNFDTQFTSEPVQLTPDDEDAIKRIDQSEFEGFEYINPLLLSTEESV", "experiment": "SelectScreen kinase profiling: PRKCZ", "format": "biochemical", "conditions": "[ATP] 5 µM", "experimental": "as §1"}, "[7]": {"biological_target": "CDK9/cyclin T1 (Homo sapiens, UniProt P50750)", "experiment": "SelectScreen kinase profiling: CDK9/cyclin T1", "format": "biochemical", "conditions": "[ATP] 25 µM", "experimental": "as §1"}, "[8]": {"biological_target": "CSNK1G1 (CK1γ1) (Homo sapiens, UniProt Q9HCP0)", "experiment": "SelectScreen kinase profiling: CSNK1G1", "format": "biochemical", "conditions": "[ATP] 5 µM", "experimental": "as §1"}, "[9]": {"biological_target": "AMPK A2/B1/G1 (Homo sapiens, UniProt P54646)", "experiment": "SelectScreen kinase profiling: AMPK A2/B1/G1", "format": "biochemical", "conditions": "1 µM compound; [ATP] 150 µM", "experimental": "as §1"}, "[10]": {"biological_target": "BTK (Homo sapiens, UniProt Q06187)", "sequence (Q06187 whole entry)": "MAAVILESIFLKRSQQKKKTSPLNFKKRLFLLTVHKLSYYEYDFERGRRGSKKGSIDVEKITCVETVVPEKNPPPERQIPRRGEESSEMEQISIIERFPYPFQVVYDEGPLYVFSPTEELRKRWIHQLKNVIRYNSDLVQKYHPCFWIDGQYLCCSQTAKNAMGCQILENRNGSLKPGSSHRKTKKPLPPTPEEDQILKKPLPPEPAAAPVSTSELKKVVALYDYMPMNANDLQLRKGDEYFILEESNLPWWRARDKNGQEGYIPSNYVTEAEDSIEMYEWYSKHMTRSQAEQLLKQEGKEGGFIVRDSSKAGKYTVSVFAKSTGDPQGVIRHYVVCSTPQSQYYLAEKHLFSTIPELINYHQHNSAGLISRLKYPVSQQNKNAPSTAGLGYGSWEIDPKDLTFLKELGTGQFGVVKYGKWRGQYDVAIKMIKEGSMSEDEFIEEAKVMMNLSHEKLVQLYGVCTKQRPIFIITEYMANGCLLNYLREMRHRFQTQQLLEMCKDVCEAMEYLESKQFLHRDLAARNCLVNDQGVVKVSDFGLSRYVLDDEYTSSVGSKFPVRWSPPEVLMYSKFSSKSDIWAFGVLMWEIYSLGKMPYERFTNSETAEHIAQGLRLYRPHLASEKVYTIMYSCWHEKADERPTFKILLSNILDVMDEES", "experiment": "SelectScreen kinase profiling: BTK", "format": "biochemical", "conditions": "[ATP] 25 µM", "experimental": "as §1"}, "[11]": {"biological_target": "Akt1 (PKBα) (Homo sapiens, UniProt P31749)", "experiment": "SelectScreen kinase profiling: Akt1", "format": "biochemical", "conditions": "10-point titration; [ATP] 75 μM", "experimental": "Effect of the indicated compounds on the activity of various kinases was assessed by SelectScreen Kinase Profiling Service (Invitrogen-Life Technologies, Paisley, UK). […] In the case of […] a screen using 10 μM of the compound was also carried out, as indicated in the corresponding table."}, "[12]": {"biological_target": "ITK (Homo sapiens, UniProt Q08881)", "sequence (Q08881 whole entry)": "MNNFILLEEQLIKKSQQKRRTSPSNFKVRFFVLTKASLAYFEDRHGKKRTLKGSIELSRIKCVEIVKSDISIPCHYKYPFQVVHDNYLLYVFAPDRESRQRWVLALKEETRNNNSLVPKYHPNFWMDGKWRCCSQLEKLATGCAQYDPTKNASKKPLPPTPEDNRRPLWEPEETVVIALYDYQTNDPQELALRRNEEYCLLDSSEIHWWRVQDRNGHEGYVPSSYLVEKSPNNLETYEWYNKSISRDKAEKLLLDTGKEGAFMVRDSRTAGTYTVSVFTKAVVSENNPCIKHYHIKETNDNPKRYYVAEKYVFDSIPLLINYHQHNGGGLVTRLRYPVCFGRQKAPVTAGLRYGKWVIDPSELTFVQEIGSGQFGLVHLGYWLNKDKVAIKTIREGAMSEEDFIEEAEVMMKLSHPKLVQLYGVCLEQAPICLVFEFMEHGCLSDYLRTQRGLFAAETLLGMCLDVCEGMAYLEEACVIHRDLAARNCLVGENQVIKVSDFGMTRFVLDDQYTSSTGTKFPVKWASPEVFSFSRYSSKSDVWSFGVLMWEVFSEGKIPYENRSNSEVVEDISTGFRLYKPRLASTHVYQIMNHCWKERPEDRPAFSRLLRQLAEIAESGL", "experiment": "SelectScreen kinase profiling: ITK", "format": "biochemical", "conditions": "[ATP] 5 µM", "experimental": "as §1"}, "[13]": {"biological_target": "MAPK8 (JNK1) (Homo sapiens, UniProt P45983)", "experiment": "SelectScreen kinase profiling: MAPK8", "format": "biochemical", "conditions": "[ATP] 100 µM", "experimental": "as §1"}, "[14]": {"biological_target": "CDK1/cyclin B (Homo sapiens, UniProt P06493)", "experiment": "SelectScreen kinase profiling: CDK1/cyclin B", "format": "biochemical", "conditions": "[ATP] 25 µM", "experimental": "as §1"}, "[15]": {"experiment": "Water solubility", "format": "physicochemical"}, "[16]": {"biological_target": "FRAP1 (mTOR) (Homo sapiens, UniProt P42345)", "experiment": "SelectScreen kinase profiling: mTOR", "format": "biochemical", "experimental": "as §1"}, "[17]": {"tested_on": "PC3", "experiment": "SRB assay, PC3", "format": "cell-based, human", "conditions": "PC3, 72 h", "experimental": "Cells seeded in a 24-well plate were treated with the indicated compounds in serum free DMEM or DMEM containing 0.5% FBS (PC3). After 72 h, the number of surviving cells was assessed by manual cell counting or by using the cell counter CDA-500 (Sysmex, Milton Keynes, UK). Alternatively, after 48 h, the number of apoptotic cells was assessed by acridine orange/ethidium bromide assay as described ([Piccolo et al, 2004]; [Maffucci et al, 2005]). SRB test was carried out in SKOV-3 and PC3 seeded in 96-well plate (3800 cells per well or 5800 cells per well, respectively) after 72 h of treatment as described ([Cappella et al, 2001]).\nThe number of surviving cells was assessed by cell counting. Data are mean±s.e. of n=3 (A), n=6 (B), n=3 (C) and n=4 (D) independent experiments carried out in duplicate. ^*=P<0.01; ^**=P<0.05. […] After 72 h the number of surviving cells was assessed by SRB assay. Data are mean±s.e. of n=2 independent experiments.\nData are mean±s.e. of n=4 independent experiments carried out in duplicate. […] Data are mean±s.e. of n=5 independent experiments carried out in duplicate. […] Data are mean±s.e. of n=6 independent experiments carried out in duplicate. […] Data are mean±s.e. of n=2 independent experiments carried out in duplicate. In all cases (A–D), cells were treated for 72 h and the number of surviving cells was assessed by cell counting. […] In all cases (E, F), cells were treated for 72 h and the number of surviving cells was assessed by SRB assay and data are mean±s.e. of two experiments carried out in quadruplicate."}, "[18]": {"biological_target": "CDC42 BPA (MRCKA) (Homo sapiens, UniProt Q5VT25)", "sequence (Q5VT25 whole entry)": "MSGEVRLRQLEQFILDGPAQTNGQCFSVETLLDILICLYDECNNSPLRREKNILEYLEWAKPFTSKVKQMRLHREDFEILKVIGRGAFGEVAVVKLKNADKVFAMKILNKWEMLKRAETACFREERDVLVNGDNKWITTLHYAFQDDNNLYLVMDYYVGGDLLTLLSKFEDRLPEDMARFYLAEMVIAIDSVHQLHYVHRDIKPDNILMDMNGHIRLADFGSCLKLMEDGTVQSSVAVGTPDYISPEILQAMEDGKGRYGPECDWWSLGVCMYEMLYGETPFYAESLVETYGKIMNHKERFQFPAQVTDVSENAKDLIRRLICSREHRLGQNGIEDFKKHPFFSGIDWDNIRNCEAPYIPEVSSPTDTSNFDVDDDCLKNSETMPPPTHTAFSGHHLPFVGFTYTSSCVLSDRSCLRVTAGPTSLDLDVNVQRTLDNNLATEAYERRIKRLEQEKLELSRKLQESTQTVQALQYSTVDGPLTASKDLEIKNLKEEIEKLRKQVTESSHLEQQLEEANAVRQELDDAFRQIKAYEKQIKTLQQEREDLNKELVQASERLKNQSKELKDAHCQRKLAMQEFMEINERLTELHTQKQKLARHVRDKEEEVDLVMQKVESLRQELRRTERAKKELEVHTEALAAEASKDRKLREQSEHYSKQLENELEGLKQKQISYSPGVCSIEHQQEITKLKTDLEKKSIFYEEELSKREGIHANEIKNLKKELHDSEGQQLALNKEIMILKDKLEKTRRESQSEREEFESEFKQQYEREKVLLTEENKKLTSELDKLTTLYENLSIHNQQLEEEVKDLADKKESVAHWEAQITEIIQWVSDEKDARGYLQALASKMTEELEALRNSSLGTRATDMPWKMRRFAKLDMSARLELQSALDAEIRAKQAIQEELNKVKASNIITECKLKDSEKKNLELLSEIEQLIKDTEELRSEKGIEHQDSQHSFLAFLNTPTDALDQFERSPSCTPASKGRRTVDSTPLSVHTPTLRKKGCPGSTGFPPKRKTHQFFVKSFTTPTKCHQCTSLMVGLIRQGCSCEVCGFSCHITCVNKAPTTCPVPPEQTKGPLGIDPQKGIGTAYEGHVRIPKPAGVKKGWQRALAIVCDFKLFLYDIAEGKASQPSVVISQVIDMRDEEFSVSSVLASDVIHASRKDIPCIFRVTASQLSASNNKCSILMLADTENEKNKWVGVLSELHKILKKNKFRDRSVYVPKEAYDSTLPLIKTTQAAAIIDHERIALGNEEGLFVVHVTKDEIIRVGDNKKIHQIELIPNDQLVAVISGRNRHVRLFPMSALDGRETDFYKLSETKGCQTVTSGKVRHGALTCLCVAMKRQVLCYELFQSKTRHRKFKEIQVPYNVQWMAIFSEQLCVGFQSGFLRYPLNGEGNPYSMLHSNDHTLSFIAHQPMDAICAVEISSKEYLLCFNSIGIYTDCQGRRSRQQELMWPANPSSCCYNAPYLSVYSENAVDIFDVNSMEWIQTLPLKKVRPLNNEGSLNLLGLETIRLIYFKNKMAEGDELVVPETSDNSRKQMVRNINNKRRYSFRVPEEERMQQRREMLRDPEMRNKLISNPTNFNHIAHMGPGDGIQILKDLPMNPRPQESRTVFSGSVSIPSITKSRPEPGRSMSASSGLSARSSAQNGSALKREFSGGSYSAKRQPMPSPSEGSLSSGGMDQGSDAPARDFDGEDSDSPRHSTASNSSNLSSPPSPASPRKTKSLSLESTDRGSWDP", "experiment": "SelectScreen kinase profiling: CDC42 BPA", "format": "biochemical", "conditions": "[ATP] 5 µM", "experimental": "as §1"}, "[19]": {"biological_target": "CHEK2 (CHK2) (Homo sapiens, UniProt O96017)", "sequence (O96017 whole entry)": "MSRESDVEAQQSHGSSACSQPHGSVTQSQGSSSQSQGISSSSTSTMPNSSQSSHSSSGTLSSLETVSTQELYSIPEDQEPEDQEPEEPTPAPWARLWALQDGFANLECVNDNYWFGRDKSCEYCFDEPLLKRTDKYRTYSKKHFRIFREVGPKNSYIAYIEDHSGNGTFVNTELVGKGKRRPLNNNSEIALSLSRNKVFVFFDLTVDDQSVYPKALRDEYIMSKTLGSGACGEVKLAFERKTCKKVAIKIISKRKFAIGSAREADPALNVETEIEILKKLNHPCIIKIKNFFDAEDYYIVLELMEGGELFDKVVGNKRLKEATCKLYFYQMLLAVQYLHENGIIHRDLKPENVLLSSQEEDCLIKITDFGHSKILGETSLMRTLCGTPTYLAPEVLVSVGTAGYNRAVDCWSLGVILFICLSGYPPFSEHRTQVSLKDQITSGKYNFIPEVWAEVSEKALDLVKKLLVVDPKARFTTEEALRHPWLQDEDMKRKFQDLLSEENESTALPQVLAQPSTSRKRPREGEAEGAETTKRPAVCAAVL", "experiment": "SelectScreen kinase profiling: CHEK2", "format": "biochemical", "conditions": "[ATP] 75 µM", "experimental": "as §1"}, "[20]": {"biological_target": "PRKCA (PKCα) (Homo sapiens, UniProt P17252)", "experiment": "SelectScreen kinase profiling: PRKCA", "format": "biochemical", "conditions": "[ATP] 25 µM", "experimental": "as §1"}, "[21]": {"biological_target": "CDK5/p25 (Homo sapiens, UniProt Q00535)", "experiment": "SelectScreen kinase profiling: CDK5/p25", "format": "biochemical", "conditions": "[ATP] 10 µM", "experimental": "as §1"}}, "data": [{"smiles": "O=P(O)(O)OC1C(OCc2ccccc2)C(OP(=O)(O)O)C(OP(=O)(O)O)C(OP(=O)(O)O)C1OP(=O)(O)O", "note": "(stereo not drawn) [2-O-Bn-InsP5, 2-O-benzyl-myo-inositol 1,3,4,5,6-pentakisphosphate]", "values": [{"measurement": "inhibition at 1 µM", "setting": "[1]; 1 µM compound", "value": 13, "unit": "%"}, {"measurement": "inhibition at 1 µM", "setting": "[2]; 1 µM compound", "value": 5, "unit": "%"}, {"measurement": "inhibition at 1 µM", "setting": "[3]; 1 µM compound", "value": 2, "unit": "%"}, {"measurement": "inhibition at 1 µM", "setting": "[4]; 1 µM compound", "value": 0, "unit": "%"}, {"measurement": "inhibition at 1 µM", "setting": "[5]; 1 µM compound", "value": 5, "unit": "%"}, {"measurement": "inhibition at 1 µM", "setting": "[6]; 1 µM compound", "value": 10, "unit": "%"}, {"measurement": "inhibition at 1 µM", "setting": "[7]; 1 µM compound", "value": -11, "unit": "%"}, {"measurement": "inhibition at 1 µM", "setting": "[8]; 1 µM compound", "value": 7, "unit": "%"}, {"measurement": "inhibition at 1 µM", "setting": "[9]", "value": 25, "unit": "%"}, {"measurement": "inhibition at 1 µM", "setting": "[10]; 1 µM compound", "value": 5, "unit": "%"}, {"measurement": "IC50", "setting": "[11]", "value": "> 100", "unit": "µM"}, {"measurement": "inhibition at 1 µM", "setting": "[12]; 1 µM compound", "value": -11, "unit": "%"}, {"measurement": "inhibition at 1 µM", "setting": "[13]; 1 µM compound", "value": 24, "unit": "%"}, {"measurement": "inhibition at 1 µM", "setting": "[14]; 1 µM compound", "value": 9, "unit": "%"}, {"measurement": "water solubility", "setting": "[15]", "value": "water soluble compound"}, {"measurement": "inhibition at 1 µM", "setting": "[16]; 1 µM compound, [ATP] 10 µM", "value": 48, "unit": "%"}, {"measurement": "IC50", "setting": "[16]; 10-point titration, [ATP] 10 μM", "value": 1.3, "unit": "µM"}, {"measurement": "number of surviving cells", "setting": "[17]", "value": "Higher activity"}, {"measurement": "inhibition at 1 µM", "setting": "[18]; 1 µM compound", "value": 17, "unit": "%"}, {"measurement": "inhibition at 1 µM", "setting": "[19]; 1 µM compound", "value": 12, "unit": "%"}, {"measurement": "inhibition at 1 µM", "setting": "[20]; 1 µM compound", "value": 21, "unit": "%"}, {"measurement": "inhibition at 1 µM", "setting": "[21]; 1 µM compound", "value": 3, "unit": "%"}]}, {"smiles": "O=P(O)(O)OC1C(O)C(OP(=O)(O)O)C(OP(=O)(O)O)C(OP(=O)(O)O)C1OP(=O)(O)O", "note": "(stereo not drawn) [InsP5, inositol 1,3,4,5,6-pentakisphosphate]", "values": [{"measurement": "inhibition at 10 µM", "setting": "[1]; 10 µM compound", "value": 15, "unit": "%"}, {"measurement": "inhibition at 10 µM", "setting": "[2]; 10 µM compound", "value": 10, "unit": "%"}, {"measurement": "inhibition at 10 µM", "setting": "[3]; 10 µM compound", "value": 5, "unit": "%"}, {"measurement": "inhibition at 10 µM", "setting": "[4]; 10 µM compound", "value": 3, "unit": "%"}, {"measurement": "inhibition at 10 µM", "setting": "[5]; 10 µM compound", "value": 18, "unit": "%"}, {"measurement": "inhibition at 10 µM", "setting": "[6]; 10 µM compound", "value": -8, "unit": "%"}, {"measurement": "inhibition at 10 µM", "setting": "[7]; 10 µM compound", "value": 1, "unit": "%"}, {"measurement": "inhibition at 10 µM", "setting": "[8]; 10 µM compound", "value": 13, "unit": "%"}, {"measurement": "inhibition at 1 µM", "setting": "[9]", "value": 7, "unit": "%"}, {"measurement": "inhibition at 10 µM", "setting": "[10]; 10 µM compound", "value": 8, "unit": "%"}, {"measurement": "IC50", "setting": "[11]", "value": "> 100", "unit": "µM"}, {"measurement": "inhibition at 10 µM", "setting": "[12]; 10 µM compound", "value": 6, "unit": "%"}, {"measurement": "inhibition at 10 µM", "setting": "[13]; 10 µM compound", "value": 14, "unit": "%"}, {"measurement": "inhibition at 10 µM", "setting": "[14]; 10 µM compound", "value": 16, "unit": "%"}, {"measurement": "water solubility", "setting": "[15]", "value": "water soluble compound"}, {"measurement": "% Inhibition Mean", "setting": "[16]; 10 µM compound, [ATP] 10 µM", "value": "did not inhibit mTOR"}, {"measurement": "inhibition at 10 µM", "setting": "[16]; 10 µM compound, [ATP] 10 µM", "value": 16, "unit": "%"}, {"measurement": "concentrations able to mimic the effect of 2-O-Bn-InsP5", "setting": "[17]", "value": "200 to 300", "unit": "µM"}, {"measurement": "number of surviving cells", "setting": "[17]", "value": "no effect in PC3 at concentrations up to 50 μM"}, {"measurement": "inhibition at 10 µM", "setting": "[18]; 10 µM compound", "value": 0, "unit": "%"}, {"measurement": "inhibition at 10 µM", "setting": "[19]; 10 µM compound", "value": 15, "unit": "%"}, {"measurement": "inhibition at 10 µM", "setting": "[20]; 10 µM compound", "value": 30, "unit": "%"}, {"measurement": "inhibition at 10 µM", "setting": "[21]; 10 µM compound", "value": 13, "unit": "%"}]}]}
